According to patent US20140309192A1, “MODULATORS OF THE G PROTEIN-COUPLED MAS RECEPTOR AND THE TREATMENT OF DISORDERS RELATED THERETO” (ARENA PHARMACEUTICALS, INC., priority 2011, published 2014):

Molecular target: T1, human Mas receptor (Homo sapiens, UniProt P04201)
T1 construct: expressed in transfected cells; host or cells: HEK293 (ATCC CRL-1573)
T1 sequence (P04201 1-325): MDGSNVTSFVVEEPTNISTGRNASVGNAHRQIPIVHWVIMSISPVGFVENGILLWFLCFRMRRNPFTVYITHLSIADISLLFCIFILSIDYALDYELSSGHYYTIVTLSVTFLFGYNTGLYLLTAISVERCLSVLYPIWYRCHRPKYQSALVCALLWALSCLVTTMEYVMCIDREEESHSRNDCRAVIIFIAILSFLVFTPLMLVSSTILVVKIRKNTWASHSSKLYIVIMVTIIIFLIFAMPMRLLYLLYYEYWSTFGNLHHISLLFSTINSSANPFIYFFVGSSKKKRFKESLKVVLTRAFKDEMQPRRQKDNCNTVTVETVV
Assay: HTRF IP1 assay, HEK293 cells expressing human Mas receptor
Assay type: cell-based
Details: HTRF IP1 assay, human Mas receptor (Table B.2); read-out: IC50
From the text: (§1) Human and rat Mas receptors were either transiently or stably expressed in HEK293 cells. For transient transfections, human or rat Mas in pHM6 vector were transfected into HEK293 cells using Lipofectamine® (Invitrogen #18324-012). HEK293 cells transfected with empty pHM6 vector were used as a control. For generation of stable cell lines, cDNA expression plasmids encoding human or rat Mas genes and the neo^r gene were transfected into HEK293 cells (ATCC# CRL-1573) using Lipofectamine® (Invitrogen) according to the manufacturer's instructions. Stable receptor expressing pools were then generated over 3 weeks by standard techniques in the presence of 500 μg/mL Geneticin® (Gibco). Individual receptor stable pools were dilution cloned using standard techniques and clones were comparatively evaluated in inositol phosphate accumulation assays. Preferred clones were banked and cultured as needed. HEK293 cells were used as controls. The 384 well IP-One HTRF® Assay (Cisbio #62P1APEJ) was performed as described by the manufacturer's protocol. Cells were plated in at 100,000 cells per well in 15 μL DMEM (Gibco #11960) and incubated in a CO2 incubator at 37° C. for 2 h. Five μL of compounds diluted in 2× stimulation buffer plus 0.4% BSA (Sigma (#A3059) were added to each well and serial diluted IP1 standards (Cisbio #62IP1CDA) were also added to corresponding wells at this step. After the cells were incubated for 4 h in a CO2 incubator at 37° C., d2-labeled IP1 and cryptate-labeled anti-IP1 monoclonal antibody diluted in lysis buffer were added sequentially in 10 μL per well and the assay plates were kept in the dark at room temperature overnight. Ratiometric measurements of fluorescence emission at 665 nm and 620 nm were obtained using a Pherastar fluorometer (BMG Labtech). IP1 levels in each well were calculated according to the standard curves on each plate. IC50 values were obtained by fitting data to a nonlinear curve-fitting program (GraphPad Software, Inc., La Jolla Calif.).

Point of comparison: `NC(=O)[C@@H]1CCCN1Cc1ccc(C(=O)Nc2ccc(Cl)cc2N2CCN(CCC(F)(F)F)CC2)c(F)c1` [Compound 56, (S)-1-(4-(4-Chloro-2-(4-(3,3,3-trifluoropropyl)piperazin-1-yl)phenylcarbamoyl)-3-fluorobenzyl)pyrrolidine-2-carboxamide], IC50 56.1 nM. Against it:
- O=C(Nc1ccc(Cl)cc1N1CCN(CCC(F)(F)F)CC1)c1ccc2c(c1)CNCC2 [Compound 13, N-(4-Chloro-2-(4-(3,3,3-trifluoropropyl)piperazin-1-yl)phenyl)-1,2,3,4-tetrahydroisoquinoline-7-carboxamide] — 1.6-fold higher, 88.2 nM
- CC(C)(C)CCN1CCc2ccc(C(=O)Nc3ccc(Cl)cc3N3CCN(CCC(F)(F)F)CC3)cc2C1 [Compound 17, N-(4-Chloro-2-(4-(3,3,3-trifluoropropyl)piperazin-1-yl)phenyl)-2-(3,3-dimethylbutyl)-1,2,3,4-tetrahydroisoquinoline-7-carboxamide] — 6.9-fold higher, 386 nM
- NC(=O)CCN1CCc2ccc(C(=O)Nc3ccc(Cl)cc3N3CCN(CCC(F)(F)F)CC3)cc2C1 [Compound 20, 2-(3-Amino-3-oxopropyl)-N-(4-chloro-2-(4-(3,3,3-trifluoropropyl)piperazin-1-yl)phenyl)-1,2,3,4-tetrahydroisoquinoline-7-carboxamide] — 11-fold higher, 610 nM
- NCc1ccc(C(=O)Nc2ccc(Cl)cc2N2CCN(CCC(F)(F)F)CC2)c(F)c1 [Compound 26, 4-(Aminomethyl)-N-(4-chloro-2-(4-(3,3,3-trifluoropropyl)piperazin-1-yl)phenyl)-2-fluorobenzamide] — 1.6-fold higher, 87.3 nM
- NC(=O)[C@H](CO)NCc1ccc(C(=O)Nc2ccc(Cl)cc2N2CCN(CCC(F)(F)F)CC2)c(F)c1 [Compound 76, (S)-4-((1-Amino-3-hydroxy-1-oxopropan-2-ylamino)methyl)-N-(4-chloro-2-(4-(3,3,3-trifluoropropyl)piperazin-1-yl)phenyl)-2-fluorobenzamide] — within 1.5-fold, 68.2 nM
- O=C1CN(Cc2ccc(C(=O)Nc3ccc(Cl)cc3N3CCN(CCC(F)(F)F)CC3)c(F)c2F)CCN1 [Compound 167, N-(4-Chloro-2-(4-(3,3,3-trifluoropropyl)piperazin-1-yl)phenyl)-2,3-difluoro-4-((3-oxopiperazin-1-yl)methyl)benzamide] — 1.6-fold lower, 35.3 nM
- O=C(Nc1cc(Cl)c(Cl)cc1N1CCN(CCC(F)(F)F)CC1)c1ccc(CN2CCS(=O)(=O)CC2)c(F)c1F [Compound 186, N-(4,5-Dichloro-2-(4-(3,3,3-trifluoropropyl)piperazin-1-yl)phenyl)-2,3-difluoro-4-((1,1-dioxo-thiomorpholin-4-yl)methyl)benzamide] — within 1.5-fold, 49.1 nM
- O=C(Nc1ccc(Cl)cc1N1CCN(CCC(F)(F)F)CC1)c1ccc(CNCc2nn[nH]n2)c(F)c1F [Compound 200, 4-(((2H-Tetrazol-5-yl)methylamino)methyl)-N-(4-chloro-2-(4-(3,3,3-trifluoropropyl)piperazin-1-yl)phenyl)-2,3-difluorobenzamide] — within 1.5-fold, 41.7 nM
- O=C(O)CNCc1ccc(C(=O)Nc2ccc(Cl)cc2N2CCN(CCC(F)(F)F)CC2)c(F)c1F [Compound 202, 2-(4-(4-Chloro-2-(4-(3,3,3-trifluoropropyl)piperazin-1-yl)phenylcarbamoyl)-2,3-difluorobenzylamino)acetic acid] — 1.6-fold higher, 92.1 nM
- O=C(O)CC1CNCCN1Cc1ccc(C(=O)Nc2ccc(Cl)cc2N2CCN(CCC(F)(F)F)CC2)c(F)c1F (centres unmarked) [Compound 226, 2-(1-(4-(4-Chloro-2-(4-(3,3,3-trifluoropropyl)piperazin-1-yl)phenylcarbamoyl)-2,3-difluorobenzyl)piperazin-2-yl)acetic acid] — 1.7-fold higher, 93.9 nM
- N#CCCNCc1ccc(C(=O)Nc2ccc(Cl)cc2N2CCN(CCC(F)(F)F)CC2)c(F)c1F [Compound 235, N-(4-Chloro-2-(4-(3,3,3-trifluoropropyl)piperazin-1-yl)phenyl)-4-((2-cyanoethylamino)methyl)-2,3-difluorobenzamide] — within 1.5-fold, 39.1 nM
- NC(=O)[C@@H](COP(=O)(O)O)NCc1ccc(C(=O)Nc2ccc(Cl)cc2N2CCN(CCC(F)(F)F)CC2)c(F)c1F [Compound 250, (R)-3-Amino-2-(4-(4-chloro-2-(4-(3,3,3-trifluoropropyl)piperazin-1-yl)phenylcarbamoyl)-2,3-difluorobenzylamino)-3-oxopropyl dihydrogenphosphate] — 9.8-fold lower, 5.7 nM
- O=C(Nc1ccc(Cl)cc1N1CCN(CCC(F)(F)F)CC1)c1ccc2c(c1)CN(C(=O)c1cccnc1)CC2 [Compound 259, N-(4-Chloro-2-(4-(3,3,3-trifluoropropyl)piperazin-1-yl)phenyl)-2-nicotinoyl-1,2,3,4-tetrahydroisoquinoline-7-carboxamide] — 1.9-fold higher, 108 nM
- NC1(C(=O)NCc2ccc(C(=O)Nc3ccc(Cl)cc3N3CCN(CCC(F)(F)F)CC3)c(F)c2F)CCSCC1 [Compound 284, 4-Amino-N-(4-(4-chloro-2-(4-(3,3,3-trifluoropropyl)piperazin-1-yl)phenylcarbamoyl)-2,3-difluorobenzyl)tetrahydro-2H-thiopyran-4-carboxamide] — within 1.5-fold, 57.2 nM
- O=C(O)CCC(=O)NCc1ccc(C(=O)Nc2ccc(Cl)cc2N2CCN(CCC(F)(F)F)CC2)c(F)c1F [Compound 293, 4-(4-(4-Chloro-2-(4-(3,3,3-trifluoropropyl)piperazin-1-yl)phenylcarbamoyl)-2,3-difluorobenzylamino)-4-oxobutanoic acid] — 1.8-fold higher, 103 nM
- O=C(Nc1ccc(Cl)cc1N1CCN(CCC(F)(F)F)CC1)c1ccc(CNC(=O)[C@H]2CC[C@@H](O)CC2)c(F)c1F [Compound 330, N-(4-Chloro-2-(4-(3,3,3-trifluoropropyl)piperazin-1-yl)phenyl)-2,3-difluoro-4-(((1s,4s)-4-hydroxycyclohexanecarboxamido)methyl)benzamide] — 4.8-fold lower, 11.7 nM
- O=C(Nc1ccc(Cl)cc1N1CCN(CCC(F)(F)F)CC1)c1ccc(CNC(=O)[C@H]2CC[C@@H](OP(=O)(O)O)CC2)c(F)c1F [Compound 392, (1s,4s)-4-(4-(4-Chloro-2-(4-(3,3,3-trifluoropropyl)piperazin-1-yl)phenylcarbamoyl)-2,3-difluorobenzylcarbamoyl)cyclohexyl dihydrogen phosphate] — 9.2-fold lower, 6.13 nM
- O=C(Nc1ccc(Cl)cc1N1CCN(CCC(F)(F)F)CC1)c1ccc(CN2C(=O)CNC2=O)c(F)c1F [Compound 428, N-(4-Chloro-2-(4-(3,3,3-trifluoropropyl)piperazin-1-yl)phenyl)-4-((2,5-dioxoimidazolidin-1-yl)methyl)-2,3-difluorobenzamide] — within 1.5-fold, 73.3 nM

Molecular target: T2, rat Mas receptor (Rattus norvegicus, UniProt P12526)
T2 construct: expressed in transfected cells; host or cells: HEK293 (ATCC CRL-1573)
T2 sequence (P12526 1-324): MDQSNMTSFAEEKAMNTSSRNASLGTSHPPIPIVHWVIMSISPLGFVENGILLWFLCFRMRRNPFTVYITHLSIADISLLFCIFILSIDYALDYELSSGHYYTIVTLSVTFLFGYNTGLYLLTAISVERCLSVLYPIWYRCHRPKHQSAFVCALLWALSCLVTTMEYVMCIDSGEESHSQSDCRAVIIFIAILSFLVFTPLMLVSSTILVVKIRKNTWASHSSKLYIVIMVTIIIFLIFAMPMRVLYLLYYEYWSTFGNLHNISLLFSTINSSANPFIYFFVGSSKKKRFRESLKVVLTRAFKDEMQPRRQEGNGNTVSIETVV
Assay: HTRF IP1 assay, HEK293 cells expressing rat Mas receptor
Assay type: cell-based
Details: HTRF IP1 assay, rat Mas receptor (Table B.1); read-out: IC50
From the text: as §1

Point of comparison: `O=C(Nc1ccc(Cl)cc1N1CCN(CCC(F)(F)F)CC1)c1ccc(CN2CCC(CO)CC2)cc1F` [Compound 54, N-(4-Chloro-2-(4-(3,3,3-trifluoropropyl)piperazin-1-yl)phenyl)-2-fluoro-4-((4-(hydroxymethyl)piperidin-1-yl)methyl)benzamide], IC50 497 nM. Against it:
- O=C(Nc1ccc(Cl)cc1N1CCN(CCC(F)(F)F)CC1)c1ccc2c(c1)CN(CCCO)CC2 [Compound 16, N-(4-Chloro-2-(4-(3,3,3-trifluoropropyl)piperazin-1-yl)phenyl)-2-(3-hydroxypropyl)-1,2,3,4-tetrahydroisoquinoline-7-carboxamide] — 1.6-fold lower, 316 nM
- CCOC(=O)CN1Cc2ccc(C(=O)Nc3ccc(Cl)cc3N3CCN(CCC(F)(F)F)CC3)cc2C1 [Compound 27, Ethyl 2-(5-(4-chloro-2-(4-(3,3,3-trifluoropropyl)piperazin-1-yl)phenylcarbamoyl)isoindolin-2-yl)acetate] — within 1.5-fold, 650 nM
- O=C(Nc1ccc(Cl)cc1N1CCN(CCC(F)(F)F)CC1)c1ccc(N2CCCC2)cc1 [Compound 41, N-(4-Chloro-2-(4-(3,3,3-trifluoropropyl)piperazin-1-yl)phenyl)-4-(pyrrolidin-1-yl)benzamide] — within 1.5-fold, 582 nM
